The source of these data is patent US12391698B2, “Substituted piperidines and piperazines and methods for the treatment of CNS disorders” (SUVEN LIFE SCIENCES LIMITED, priority 2022, dated 2025).

Structures can show the parent of a compound that is named as a salt. Where two headings read alike, the source gives them in different places.

The target of data set [1] is cloned human SERT receptor (Homo sapiens, UniProt P31645). As to the kind of experiment: Determination of Ki at SERT receptor (SPA binding, [3H]-Citalopram). The note with it: HEK293 recombinant cells, [3H]-Citalopram 2 nM, read-out: Ki hSERT. Here is the method:
(§1) Compounds were tested according to the following procedure.
• Receptor source: Recombinant mammalian cells (HEK293) • Radioligand: [^3H]-Citalopram (80.8 Ci/mmol) • Final ligand concentration: 2 nM • Non-specific determinant: 0.1 mM Venlafaxine • Reference compound: Venlafaxine • Positive control: Venlafaxine Incubation Conditions:
Reactions were carried out in buffer with pH 7.4 containing 50 mM Tris-HCl, 150 mM NaCl, 5 mM KCl and scintillation proximity assay (SPA) beads (0.1 mg/well) for 3 h at r.t. Radioactivity proximal to SPA beads was determined by scintillation proximity assay and compared to the control values in order to ascertain any interactions of the test compound(s) with cloned human SERT receptor binding site.
Reference: Journal of Pharmacology and Experimental Therapeutics, 1987, 242 (1), 364-371.

The nature of data set [2]: Rodent brain penetration study. Type of data set: in vivo. The following applies: rat, brain/plasma, po, fed male Wistar rats, 3 mg/kg p.o., mean ± S.D, n = 3, read-out: Rat Brain Penetration (Cbrain/Cplasma) at 3 mg/kg, p.o. @ 1 h. Here is the method: Male Wistar rats (260±40 g) were used as experimental animals. Three animals were housed in each cage. Animals were given water and food ad libitum throughout the experiment and maintained on a 12 h light/dark cycle.
Brain penetration was determined in discrete manner in rats. One day prior to dosing, male Wistar rats were acclimatized and randomly grouped according to their body weight. At each time point (0.50, 1 and 2 h), n=3 animals were used.
The test compounds were suitably preformulated and administered orally at (free base equivalent) 3 mg/kg. Blood samples were removed via cardiac puncture under isoflurane anesthesia. The animals were sacrificed to collect brain tissue. Plasma was separated and brain samples were homogenized. Plasma and brain homogenates were stored frozen at −20° C. until analysis. The concentrations of the test compounds in plasma and brain were determined using LC-MS/MS method.
The test compounds were quantified in plasma and brain homogenate by qualified LC-MS/MS method using suitable extraction technique in the calibration range of 1-500 ng/mL. Study samples were analyzed using calibration samples in the batch and quality control samples spread across the batch. Extent of brain-plasma ratio (Cbrain/Cplasma) was calculated.

In data set [3] the target is T1, cloned human 5-HT2A receptor (Homo sapiens, UniProt P28223).
T1 construct: expressed in transfected cells; host or cells: CHO-K1
As to the kind of experiment: Determination of Ki at 5-HT2A receptor (radioligand binding, [3H]-Ketanserine). The note with it: CHO-K1 recombinant cells; [3H]-Ketanserine 1.25 nM; read-out: Ki h5-HT2A. How it is done: as §1
• Receptor source: Recombinant mammalian cells (CHO-K1) • Radioligand: [^3H]-Ketanserine (41.9 Ci/mmol) • Final ligand concentration: 1.25 nM • Non-specific determinant: 0.1 mM 1-Napthyl piperazine (1-NP) • Reference compound: 1-Napthyl piperazine (1-NP) • Positive control: 1-Napthyl piperazine (1-NP) Incubation Conditions:
Reactions were carried out in buffer with pH 7.4 containing 50 mM Tris-HCl, 4 mM CaCl2), 0.1% Ascorbic acid for 1 h at r.t. The reaction was terminated by rapid vacuum filtration onto the glass fiber filters. Radioactivity trapped onto the filters was determined and compared to the control values in order to ascertain any interactions of the test compound(s) with cloned human 5-HT2A receptor binding site.

Data set [4] addresses T2, hD2S (cloned human dopamine D2S receptor) (Homo sapiens, UniProt P14416).
T2 construct: expressed in transfected cells; host or cells: CHO-K1
As to the kind of experiment: Determination of Ki at D2S receptor (radioligand binding, [3H]-Raclopride). The note with it: CHO-K1 recombinant cells; [3H]-Raclopride 4 nM; read-out: Ki hD2S. Here is the method: as §1
• Receptor source: Recombinant mammalian cells (CHO-K1) • Radioligand: [^3H]-Raclopride (80.8 Ci/mmol) • Final ligand concentration: 4 nM • Non-specific determinant: 0.1 mM Haloperidol • Reference compound: Haloperidol • Positive control: Haloperidol Incubation Conditions:
Reactions were carried out in buffer with pH 7.4 containing 50 mM Tris-HCl, 120 mM NaCl, 5 mM KCl, 5 mM MgCl2, 1 mM EDTA for 2 h at r.t. The reaction was terminated by rapid vacuum filtration onto the glass fiber filters. Radioactivity trapped onto the filters was determined and compared to the control values in order to ascertain any interactions of the test compound(s) with cloned human dopamine […] receptor binding site.

Data set [5] concerns the target T3, cloned human 5-HT1A receptor (Homo sapiens, UniProt P08908).
T3 construct: expressed in transfected cells; host or cells: HEK293-EBNA
T3 sequence (P08908 1-422): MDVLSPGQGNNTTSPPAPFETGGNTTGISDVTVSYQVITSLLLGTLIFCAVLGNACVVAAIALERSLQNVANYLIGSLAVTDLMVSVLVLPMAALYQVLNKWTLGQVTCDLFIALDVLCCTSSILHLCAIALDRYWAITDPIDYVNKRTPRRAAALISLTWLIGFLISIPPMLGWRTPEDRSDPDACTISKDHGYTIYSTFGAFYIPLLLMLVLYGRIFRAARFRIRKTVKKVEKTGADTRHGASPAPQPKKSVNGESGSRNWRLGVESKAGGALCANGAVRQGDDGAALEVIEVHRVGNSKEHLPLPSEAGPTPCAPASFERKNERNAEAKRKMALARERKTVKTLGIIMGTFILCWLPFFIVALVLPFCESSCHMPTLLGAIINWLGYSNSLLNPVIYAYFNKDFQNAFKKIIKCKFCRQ
In words: Determination of Ki at 5-HT1A receptor (radioligand binding, [3H]-8-Hydroxy DPAT). The note with it: HEK293-EBNA recombinant cells; [3H]-8-Hydroxy DPAT 0.8 nM; read-out: Ki h5-HT1A. How it is done:
as §1
• Receptor source: Recombinant mammalian cells (HEK293-EBNA) • Radioligand: [^3H]-8-Hydroxy DPAT (200 Ci/mmol) • Final ligand concentration: 0.8 nM • Non-specific determinant: 0.1 mM U92016A • Reference compound: U92016A • Positive control: U92016A Incubation Conditions:
Reactions were carried out in buffer with pH 7.4 containing 50 mM Tris-HCl, 0.5 mM EDTA, 10 mM MgSO4, 0.1% Ascorbic acid for 2 h at r.t. The reaction was terminated by rapid vacuum filtration onto the glass fiber filters. Radioactivity trapped onto the filters was determined and compared to the control values in order to ascertain any interactions of the test compound(s) with cloned human 5-HT1A receptor binding site.

Data set [6] in a line: Rodent pharmacokinetic study. Type of data set: in vivo, Male Wistar rats. The following applies: rat, plasma, mean ± S.D, n = 3; for bioavailability: oral 3 mg/kg vs intravenous 1 mg/kg, read-out: F (Bioavailability). Here is the method:
Male Wistar rats (260±50 g) were used as experimental animals. Animals were housed individually in polypropylene cage. Two days prior to study, male Wistar rats were anesthetized with isoflurane for surgical placement of jugular vein catheter. Rats were randomly divided for oral (3 mg/kg) and intravenous (1 mg/kg) dosing (n=3/group) and fasted overnight before oral dosing (p.o.). However, food and water were provided ad libitum to the rats allocated for intravenous dosing.
At pre-determined time points, blood samples were collected through jugular vein and replenished with an equivalent volume of normal saline. Collected blood was transferred into a labeled eppendorf tube containing 10 μL of heparin as an anticoagulant. Typically blood samples were collected at 0.08, 0.25, 0.5, 1, 2, 4, 6, 8, and 24 h post dose. Blood samples were centrifuged at 4000 rpm for 10 min. Plasma was separated and stored frozen at −80° C. until analysis. The concentrations of the test compounds were quantified in plasma by qualified LC-MS/MS method using suitable extraction technique. The test compounds were quantified in the calibration range around 1-1000 ng/mL in plasma. Study samples were analyzed using calibration samples in the batch and quality control samples spread across the batch.
Pharmacokinetic parameters Cmax, AUCt, t1/2. Clearance and Bioavailability (F) were calculated using standard non-compartmental model by using Phoenix WinNonlin 6.0.4 version software package.

Where [7] appears, read: intravenous (bolus) 1 mg/kg, male Wistar rats.
The mark [8] stands for this setting: oral (gavage) 3 mg/kg, fasted male Wistar rats.

T1 sequence (P28223 whole entry): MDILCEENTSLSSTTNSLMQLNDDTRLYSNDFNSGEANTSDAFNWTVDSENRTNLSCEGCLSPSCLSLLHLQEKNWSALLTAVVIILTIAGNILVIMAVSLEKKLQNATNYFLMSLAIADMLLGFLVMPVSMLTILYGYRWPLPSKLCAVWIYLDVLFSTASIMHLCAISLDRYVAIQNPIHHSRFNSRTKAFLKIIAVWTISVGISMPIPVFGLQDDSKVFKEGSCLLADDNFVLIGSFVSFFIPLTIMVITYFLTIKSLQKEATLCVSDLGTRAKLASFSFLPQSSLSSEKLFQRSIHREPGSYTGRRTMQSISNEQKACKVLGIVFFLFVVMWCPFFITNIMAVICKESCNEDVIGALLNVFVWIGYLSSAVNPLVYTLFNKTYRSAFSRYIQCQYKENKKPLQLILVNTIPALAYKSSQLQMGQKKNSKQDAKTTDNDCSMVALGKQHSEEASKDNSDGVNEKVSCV
T2 sequence (P14416 1-414 isoform P14416-2): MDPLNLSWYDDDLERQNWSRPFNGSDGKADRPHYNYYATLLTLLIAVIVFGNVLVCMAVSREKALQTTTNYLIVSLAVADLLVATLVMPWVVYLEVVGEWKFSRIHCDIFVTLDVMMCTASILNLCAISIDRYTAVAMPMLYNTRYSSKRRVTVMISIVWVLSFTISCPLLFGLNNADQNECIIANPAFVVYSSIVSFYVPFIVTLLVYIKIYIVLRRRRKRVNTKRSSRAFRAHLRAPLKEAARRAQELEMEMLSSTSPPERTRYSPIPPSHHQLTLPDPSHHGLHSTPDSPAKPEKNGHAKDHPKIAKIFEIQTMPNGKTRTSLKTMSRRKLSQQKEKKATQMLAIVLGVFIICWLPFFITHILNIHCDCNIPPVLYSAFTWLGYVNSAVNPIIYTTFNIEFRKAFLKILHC
Sequence of cloned human SERT receptor (P31645 whole entry): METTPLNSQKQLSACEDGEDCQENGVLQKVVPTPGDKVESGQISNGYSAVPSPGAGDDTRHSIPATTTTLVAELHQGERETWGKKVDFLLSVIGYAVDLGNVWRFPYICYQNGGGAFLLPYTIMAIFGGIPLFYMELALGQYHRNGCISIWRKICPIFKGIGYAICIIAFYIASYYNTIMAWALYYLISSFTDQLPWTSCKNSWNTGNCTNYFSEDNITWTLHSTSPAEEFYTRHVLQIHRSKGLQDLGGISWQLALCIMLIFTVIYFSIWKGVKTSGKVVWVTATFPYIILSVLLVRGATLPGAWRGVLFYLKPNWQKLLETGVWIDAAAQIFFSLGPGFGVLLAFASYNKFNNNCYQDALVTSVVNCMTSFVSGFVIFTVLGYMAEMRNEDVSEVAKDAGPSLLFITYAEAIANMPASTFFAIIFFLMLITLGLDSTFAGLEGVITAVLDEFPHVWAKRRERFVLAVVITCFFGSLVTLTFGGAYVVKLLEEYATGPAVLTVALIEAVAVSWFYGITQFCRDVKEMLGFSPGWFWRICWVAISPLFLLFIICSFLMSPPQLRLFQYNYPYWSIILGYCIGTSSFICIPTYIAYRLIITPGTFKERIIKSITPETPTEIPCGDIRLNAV

Consider `O=C1C[C@@H]2CCCN2C(=O)N1CCCCN1CCC(c2noc3cc(F)ccc23)CC1` [Example 5, 2-{4-[4-(6-Fluoro-benzo[d]isoxazol-3-yl)-piperidin-1-yl]-butyl}-tetrahydro-pyrrolo[1,2-c]pyrimidine-1,3-dione], for which the Ki is greater than 10 µM in data set [1] (cells printed in μM), 0.7 nM in data set [3], 7.3 nM in data set [4] and 14.7 nM in data set [5]. Besides, in data set [2], the Kp at 1 h amounted to 1.06 ± 0.46. Moreover, the values for the AUC(0-t) in data set [6] (setting [7]) and in data set [6] (setting [8]) were 226 ± 11 ng·h/mL and 151 ± 61 ng·h/mL, respectively. This compound also had a clearance in data set [6] (setting [7]) of 74 ± 3.4 mL/min/kg. Further, the half-life in data set [6] (setting [7]) is 30 ± 6 min; in data set [6] (setting [8]), 42 ± 6 min. In data set [6] (male Wistar rats), the bioavailability is 22 ± 9%. This compound also returned a Cmax in data set [6] (setting [8]) of 152 ± 44 ng/mL.
Regarding `O=C1C[C@H]2CCCN2C(=O)N1C[C@H]1CCCC[C@H]1CN1CCC(c2noc3cc(F)ccc23)CC1` [Example 29, 2-{2-[4-(6-Fluoro-benzo[d]isoxazol-3-yl)-piperidin-1-ylmethyl]-cyclohexylmethyl}-tetrahydro-pyrrolo[1,2-c]pyrimidine-1,3-dione oxalate], the Ki was greater than 10 µM in data set [1] (cells printed in μM), 0.8 nM in data set [3], 0.2 nM in data set [4] and 10 nM in data set [5]. In data set [2], the Kp at 1 h turned out to be 2.73 ± 0.23. The AUC(0-t) in data set [6] (setting [7]) was determined as 291 ± 17 ng·h/mL; in data set [6] (setting [8]), 40 ± 15 ng·h/mL. The clearance in data set [6] (setting [7]) came to 57 ± 3 mL/min/kg. Also, the half-life is 60 ± 6 min in data set [6] (setting [7]) and 54 ± 6 min in data set [6] (setting [8]). Besides, the bioavailability in data set [6] (male Wistar rats) stood at 4.6 ± 2%. Also, the peak concentration (Cmax) in data set [6] (setting [8]) is 37 ± 14 ng/mL.
`COC(=O)N1CCN2C(=O)N(CCCCN3CCC(c4noc5cc(F)ccc45)CC3)C(=O)C[C@@H]2C1` [Example 35, 7-{4-[4-(6-Fluoro-benzo[d]isoxazol-3-yl)-piperidin-1-yl]-butyl}-6,8-dioxo-octahydro-pyrazino[1,2-c]pyrimidine-2-carboxylic acid methyl ester]: the Ki in data set [1] came out at 0.975 µM; in data set [3], 4.8 nM; in data set [4], 4.7 nM; in data set [5], 45.7 nM.
`COC(=O)N1CCN2C(=O)N(CCCCN3CCC(c4noc5cc(F)ccc45)CC3)C(=O)C[C@@H]2C1` [Example 36, 7-{4-[4-(6-Fluoro-benzo[d]isoxazol-3-yl)-piperidin-1-yl]-butyl}-6,8-dioxo-octahydro-pyrazino[1,2-c]pyrimidine-2-carboxylic acid methyl ester fumarate]: the Ki in data set [1] stood at 1.48 µM; in data set [3], 2.2 nM; in data set [4] it was 3.3 nM; in data set [5] it was 130 nM.
For `CC(=O)N1CCN2C(=O)N(CCCCN3CCN(c4nsc5ccccc45)CC3)C(=O)C[C@@H]2C1` [Example 37, 2-Acetyl-7-[4-(4-benzo[d]isothiazol-3-yl-piperazin-1-yl)-butyl]-hexahydro-pyrazino[1,2-c]pyrimidine-6,8-dione], the Ki turned out to be 1.1 µM in data set [1], 1.5 nM in data set [3], 8.2 nM in data set [4] and 0.3 nM in data set [5].
The corresponding values for `CC(C)N1CCN2C(=O)N(CCCCN3CCN(c4nsc5ccccc45)CC3)C(=O)C[C@H]2C1` [Example 40, 7-[4-(4-Benzo[d]isothiazol-3-yl-piperazin-1-yl)-butyl]-2-isopropyl-hexahydro-pyrazino[1,2-c]pyrimidine-6,8-dione fumarate] are 1.25 µM, 1.6 nM, 5 nM and 0.5 nM.
Consider `O=C1C[C@@H]2CCCN2C(=O)N1CCCCN1CCC(c2noc3ccccc23)CC1` [Example 42, 2-{4-[4-(Benzo[d]isoxazol-3-yl)-piperidin-1-yl]-butyl}-tetrahydro-pyrrolo[1,2-c]pyrimidine-1,3-dione, oxalate], for which the Ki in data set [1] (cells printed in μM) is greater than 10 µM; in data set [3], 11.6 nM; in data set [4], 37.3 nM; in data set [5], 8.7 nM.
The corresponding values for `O=C1C[C@@H]2CCCN2C(=O)N1CCCN1CCC(c2noc3ccccc23)CC1` [Example 44, 2-[3-(4-Benzo[d]isoxazol-3-yl-piperidin-1-yl)-propyl]-tetrahydro-pyrrolo[1,2-c]pyrimidine-1,3-dione, oxalate] are greater than 10 µM, 59.9 nM, 119 nM and 531 nM.

What is called Ki is the dissociation constant of the complex between target and ligand, obtained from inhibition or displacement. One may read the AUC(0-t) as exposure summed from dosing to a finite time, without extrapolation to infinity. Low readings indicate less exposure, high ones more exposure. One may read the clearance as the rate of elimination divided by the concentration. A lower clearance goes with inefficient removal. A word on the half-life: it is how long it takes for the measured level to halve. Low values mean rapid decline, high ones slow decline. What is called bioavailability is the share of a dose that reaches the circulation, judged against a reference dose that is usually intravenous. Usually Cmax stands for the maximum level reached in the sampled fluid or tissue.
